Square brackets hold non-standard residues; d marks the D form. Peptide text beside a SMILES is read from it. * marks the point of attachment. ξ: configuration not given here. Pip = O=C(O)[C@@H]1CCCCN1; ξD = NC(CC(=O)O)C(=O)O; Bz = O=C(c1ccccc1)*; CH2F = FC*
How the values were obtained:
Format in all cases: cell-based
[1] = tested on: caspase-8-mediated apoptotic pathway (Fas induced apoptosis); assay: Anti-Fas induced apoptosis assay
Excerpt: Cellular apoptosis can be induced by the binding of Fas ligand (FasL) to its receptor, CD95 (Fas). Conditions for an assay to measure the effect of compounds on the inhibition of the caspase-8-mediated apoptotic pathway can be found in WO01/42216.

[2] = tested on: IL-1β secretion from peripheral blood mononuclear cells; assay: Inhibition of IL-1β secretion from mixed population of peripheral blood mononuclear cells (PBMC); details: human PBMC, mature IL-1β in supernatant
Excerpt: Processing of pre-IL-1β by caspase-1 can be measured in cell culture using a variety of cell sources. Human PBMC obtained from healthy donors provides a mixed population of lymphocyte and mononuclear cells that produce a spectrum of interleukins and cytokines in response to many classes of physiological stimulators. The assay conditions used for inhibition of IL-1β secretion from mixed population of peripheral blood mononuclear cells can be found in WO01/42216.
The inhibitory potency of the compounds can be represented by an IC50 value, which is the concentration of inhibitor at which 50% of the mature IL-1β is detected in the supernatant as compared to the positive controls.

TNF-alpha = assay: Inhibition of TNF release from whole blood (LPS induced); details: Homo sapiens, LPS 5 ng/ml, overnight, ELISA
Procedure: Human blood was freshly drawn from healthy donors and collected in vacutainers. Blood was diluted 1:2 in PBS (tissue culture, pyrogen free) in a sterile bottle and inverted to mix well. Aliquots of 0.5 ml of blood mixture were dispensed into cluster tubes in 96 well format.
Dilutions of the test compounds were prepared in RPMI by taking 100 mM DMSO stocks of the compounds and diluting 1:10 in RPMI medium in eppendorfs, to give a 10 mM stock. 1:5 serial dilutions were prepared from the stock solutions.
LPS was kept at a frozen stock (−20 degrees C.) at 1 mg/ml in PBS and then diluted to 1:10 with RPMI medium and finally diluted in the medium again 1:350. 50 μl of each test compound (first concentration was 100 μM) were added to the blood samples and then stimulated with 10 μl LPS (final concentration in the well is 5 ng/ml). The contents were gently mixed using an 8 well multi-channel pipette and incubated at 37° C. over night. At the end of the incubation time, contents were gently mixed, then spun down at 1000×g for 5 mins at 20° C. The serum supernatants were transferred to a fresh plate without disturbing the RBCs and diluted 1:2 with the diluent RD6C.
TNF-alpha levels of supernatants were assayed using the R+D systems ELISA kit, using R+D systems protocol. Samples were read at 450 nm.

IC50 [1] [µM]	IC50 [2] [µM]	IC50 (TNF-alpha; exact value in brackets) [µM]	IC50 (TNF-alpha; stated as bound) [µM]	SMILES
< 0.05				O=C(O)CC(NC(=O)[C@@H]1CCCCN1C(=O)c1ccccc1)C(=O)CF (stereo partly drawn) [Compound 3, [3S/R,(2S)]-5-Fluoro-4-oxo-3-[1-benzoyl-2-piperidinecarboxamido]-pentanoic acid] (Bz-[Pip]-[ξD]-CH2F)
	< 0.5	5.04	< 6	O=C(O)CC(NC(=O)[C@@H]1CCCCN1C(=O)c1ccc(-c2cccc(C(F)(F)F)c2)o1)C(=O)CF (stereo partly drawn) [Compound 10, [3S/R,(2S)]-5-Fluoro-4-oxo-3-[1-[2-(3-trifluoromethyl-phenyl)-furan-4-carbonyl]-2-piperidinecarboxamido]-pentanoic acid]

Reference: patent US7807659B2, “Caspase inhibitors and uses thereof” (Vertex Pharmaceuticals Incorporated, priority 2001, dated 2010)
